Data: US12692249B2, “WDR5 inhibitors and modulators” (Vanderbilt University, priority 2019, dated 2026)
Like-named read-outs stand apart in the source and are kept apart here.

Experiments:
WDR5 = WDR5 (Homo sapiens, UniProt P61964); experiment: TR-FRET competition binding assay, displacement of 10mer-Thr-FAM MLL peptide probe from His-tagged WDR5; conditions: WDR5-His tag (residues 24-334) 2 nM; 10mer-Thr-FAM 150 nM; 60 min, room temperature; read-out: Ki for Inhibition of WDR5 by TR-FRET assay
Method: Time Resolved-Fluorescence Energy Transfer Competition Assay […] Excess 10mer-Thr-FAM probe was utilized with His-tagged WDR5 in conjunction with a commercial anti-His antibody containing a Terbium label. The LanthaScreenTM Elite Tb-anti-HIS Antibody from ThermoFisher Scientific was used for this purpose. […] The 10mer-Thr-FAM probe when bound to WDR5 will undergo a FRET interaction with the Tb-anti-HIS and emit at 520 nm. […] WDR[…] 10[…] used at 150 nM. […] A source plate is prepared using an Echo Liquid Handler, which distributes the compounds to the assay plate (white, flat-bottom; OptiPlate) in a 10-point, 5-fold dilution schemes with a top concentration of 5 μM, in a final volume of 20 μL. […] The final DMSO concentration in each well of the assay plate is 1% or lower. The plate is covered, shielded from light, and incubated for 60 minutes at room temperature with rocking. 10mer-Thr-FAM and Anti-His terbium antibody fluorescence is then measured on a Biotek Cytation 3 at excitation wavelength of 340 nm, and emission wavelengths of 495 nm and 520 nm. […] TR-FRET signal is plotted and IC50 and Ki values are calculated according to the formula of Wang Z. FEBS Lett (1996) 3, 245. Ki=[I]50/([L]50/Kd+[P]0/Kd+1) where [I]50 is the concentration of the free inhibitor at 50% inhibition, [L]50 is the concentration of the free labeled ligand at 50% inhibition, [P]0 is the concentration of the free protein at 0% inhibition, Kd represents the dissociation constant of the FITC-MLL or 10mer-Thr-FAM probe for WDR5. Total fluorescence is also measured, to rule out compounds that are inherently fluorescent or able to act as quenchers in the assay. TR-FRET Binding Assay

[1] = system: MV4:11 human cancer cell lines; experiment: Cellular viability / anti-proliferative assay, CellTiter-Glo, 5 day protocol; type: cell-based; conditions: Homo sapiens, MV4-11, 120 h, read-out: GI50 on cellular proliferation of MV4:11 human cancer cell lines
Procedure, shortened: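 MV-4-11 cells in IMDM with 10% FBS, 200 cells/well, exposed 5 days to 22 two-fold dilutions from 30 μM, final DMSO 0.3%. Viability read by CellTiter-Glo luminescence; GI50 from sigmoidal dose-response fit, mean of at least two replicates.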

[2] = MV4:11 cells, 5 day incubation, CellTiter-Glo, mean of at least two replicates

Ki (WDR5) [nM]	GI50 [1, 2] [nM]	SMILES	GI50 [1] [nM]
< 0.02	76	CCc1cc(N(C)C)c2nccc(N3CCc4c(cc(Cn5ccnc5)cc4-c4cn(C)nc4C(F)(F)F)C3=O)c2c1 [Example 35, 7-((1H-Imidazol-1-yl)methyl)-2-(8-(dimethylamino)-6-ethylquinolin-4-yl)-5-(1-methyl-3-(trifluoromethyl)-1H-pyrazol-4-yl)-3,4-dihydroisoquinolin-1(2H)-one]	
< 0.02	22	CCc1cc(Br)c2nc(C)cc(N3CCc4c(cc(Cn5ccnc5)cc4-c4cn(C)nc4C(F)(F)F)C3=O)c2c1 [Example 109, 7-((1H-imidazol-1-yl)methyl)-2-(8-bromo-6-ethyl-2-methylquinolin-4-yl)-5-(1-methyl-3-(trifluoromethyl)-1H-pyrazol-4-yl)-3,4-dihydroisoquinolin-1(2H)-one]	
0.023	38	Cc1nccn1Cc1cc2c(c(-c3cn(C)nc3C(F)(F)F)c1)CCN(C1CCCc3ccc(Br)cc31)C2=O (stereo not shown) [Example 60]	
< 0.02	< 20	CCc1cc(C(=O)NC2CN(C(=O)C3CCOCC3)C2)c2nccc(N3CCc4c(cc(Cn5ccnc5)cc4-c4cn(C)nc4C(F)(F)F)C3=O)c2c1 [Example 223, 4-(7-((1H-Imidazol-1-yl)methyl)-5-(1-methyl-3-(trifluoromethyl)-1H-pyrazol-4-yl)-1-oxo-3,4-dihydroisoquinolin-2(1H)-yl)-6-ethyl-N-(1-(tetrahydro-2H-pyran-4-carbonyl)azetidin-3-yl)quinoline-8-carboxamide]	
0.052	31	Cc1nccn1Cc1cc2c(c(-c3cn(C)nc3C(F)(F)F)c1)CCN(C1CCOc3ccc(Br)cc31)C2=O (stereo not shown) [Example 61, 2-(6-Bromochroman-4-yl)-7-((2-methyl-1H-imidazol-1-yl)methyl)-5-(1-methyl-3-(trifluoromethyl)-1H-pyrazol-4-yl)-3,4-dihydroisoquinolin-1(2H)-one]	
0.043	< 20	COc1cc(CN2CCN(C)C(=O)C2)c2nccc(N3CCc4c(cc(Cn5ccnc5)cc4-c4cn(C)nc4C(F)(F)F)C3=O)c2c1 [Example 131, 7-((1H-Imidazol-1-yl)methyl)-2-(6-methoxy-8-((4-methyl-3-oxopiperazin-1-yl)methyl)quinolin-4-yl)-5-(1-methyl-3-(trifluoromethyl)-1H-pyrazol-4-yl)-3,4-dihydroisoquinolin-1(2H)-one]	
0.031	40	CCc1cc(F)c2cncc(N3CCc4c(cc(Cn5ccnc5)cc4-c4cn(C)nc4C(F)(F)F)C3=O)c2c1 [Example 115, 7-((1H-Imidazol-1-yl)methyl)-6′-ethyl-8′-fluoro-5-(1-methyl-3-(trifluoromethyl)-1H-pyrazol-4-yl)-3,4-dihydro-1H-[2,4′-biisoquinolin]-1-one]	
0.048	43	COc1ccc2ncc(Cl)c(N3CCc4c(cc(Cn5ccnc5C)cc4-c4cn(C)nc4C(F)(F)F)C3=O)c2c1 [Example 9, 2-(3-Chloro-6-methoxyquinolin-4-yl)-7-((2-methyl-1H-imidazol-1-yl)methyl)-5-(1-methyl-3-(trifluoromethyl)-1H-pyrazol-4-yl)-3,4-dihydroisoquinolin-1(2H)-one]	
0.068	87	Cc1nccn1Cc1cc2c(c(-c3cn(C)nc3C(F)(F)F)c1)CCN(C1CCOc3ccc(C4CC4)cc31)C2=O (stereo not shown) [Example 63, 2-(6-Cyclopropylchroman-4-yl)-7-((2-methyl-1H-imidazol-1-yl)methyl)-5-(1-methyl-3-(trifluoromethyl)-1H-pyrazol-4-yl)-3,4-dihydroisoquinolin-1(2H)-one]	
< 0.02	31	CCc1cc(N(C)CCN(C)C)c2nccc(N3CCc4c(cc(Cn5ccnc5)cc4-c4cn(C)nc4C(F)(F)F)C3=O)c2c1 [Example 38, 7-((1H-Imidazol-1-yl)methyl)-2-(8-((2-(dimethylamino)ethyl)(methyl)amino)-6-ethylquinolin-4-yl)-5-(1-methyl-3-(trifluoromethyl)-1H-pyrazol-4-yl)-3,4-dihydroisoquinolin-1(2H)-one]	
0.023	23	COc1cc(-c2cn[nH]c2)c2nc(C)cc(N3CCc4c(cc(Cn5ccnc5)cc4-c4cn(C)nc4C(F)(F)F)C3=O)c2c1 [Example 201, 7-((1H-imidazol-1-yl)methyl)-2-(6-methoxy-2-methyl-8-(1H-pyrazol-4-yl)quinolin-4-yl)-5-(1-methyl-3-(trifluoromethyl)-1H-pyrazol-4-yl)-3,4-dihydroisoquinolin-1(2H)-one]	
0.027	< 20	COc1ccc2cncc(N3CCc4c(cc(Cn5ccnc5)cc4-c4cn(C)nc4C(F)(F)F)C3=O)c2c1 [Example 87, 7-((1H-imidazol-1-yl)methyl)-6′-methoxy-5-(1-methyl-3-(trifluoromethyl)-1H-pyrazol-4-yl)-3,4-dihydro-1H-[2,4′-biisoquinolin]-1-one]	
< 0.02	583	Cc1nccn1Cc1cc2c(c(-c3cn(C)nc3C(F)(F)F)c1)CCN(C1COc3ccccc31)C2=O (stereo not shown) [Example 77, 2-(2,3-Dihydrobenzofuran-3-yl)-7-((2-methyl-1H-imidazol-1-yl)methyl)-5-(1-methyl-3-(trifluoromethyl)-1H-pyrazol-4-yl)-3,4-dihydroisoquinolin-1(2H)-one]	
< 0.02	< 20	COc1cc(C(=O)NC2CCN(C)CC2)c2nc(C)cc(N3CCc4c(cc(Cn5ccnc5)cc4-c4cn(C)nc4C(F)(F)F)C3=O)c2c1 [Example 189, 4-(7-((1H-Imidazol-1-yl)methyl)-5-(1-methyl-3-(trifluoromethyl)-1H-pyrazol-4-yl)-1-oxo-3,4-dihydroisoquinolin-2(1H)-yl)-6-methoxy-2-methyl-N-(1-methylpiperidin-4-yl)quinoline-8-carboxamide]	
< 0.02	< 20	COc1ccc2c(c1)[C@@H](N1CCc3c(cc(Cn4ccnc4)cc3-c3cn(C)nc3C(F)(F)F)C1=O)CCO2 [Example 70, (S)-7-((1H-Imidazol-1-yl)methyl)-2-(6-methoxychroman-4-yl)-5-(1-methyl-3-(trifluoromethyl)-1H-pyrazol-4-yl)-3,4-dihydroisoquinolin-1(2H)-one]	
0.022	43	COc1cnc2c(C)ccc(N3CCc4c(cc(Cn5ccnc5)cc4-c4cn(C)nc4C(F)(F)F)C3=O)c2c1 [Example 206, 7-((1H-Imidazol-1-yl)methyl)-2-(3-methoxy-8-methylquinolin-5-yl)-5-(1-methyl-3-(trifluoromethyl)-1H-pyrazol-4-yl)-3,4-dihydroisoquinolin-1(2H)-one]	
< 0.02	< 20	CCc1cc(C(=O)NC2CCN(C)CC2)c2nccc(N3CCc4c(cc(Cn5ccnc5)cc4-c4cn(C)nc4C(F)(F)F)C3=O)c2c1 [Example 186, 4-(7-((1H-Imidazol-1-yl)methyl)-5-(1-methyl-3-(trifluoromethyl)-1H-pyrazol-4-yl)-1-oxo-3,4-dihydroisoquinolin-2(1H)-yl)-6-ethyl-N-(1-methylpiperidin-4-yl)quinoline-8-carboxamide]	
< 0.02	< 20	COc1cnc2cncc(N3CCc4c(cc(Cn5ccnc5)cc4-c4cn(C)nc4C(F)(F)F)C3=O)c2c1 [Example 214, 7-((1H-imidazol-1-yl)methyl)-2-(3-methoxy-1,7-naphthyridin-5-yl)-5-(1-methyl-3-(trifluoromethyl)-1H-pyrazol-4-yl)-3,4-dihydroisoquinolin-1(2H)-one]	
< 0.02	< 20	CCc1cc(C(=O)NCC2CN(C(=O)c3ccncc3)C2)c2nccc(N3CCc4c(cc(Cn5ccnc5)cc4-c4cn(C)nc4C(F)(F)F)C3=O)c2c1 [Example 219, 4-(7-((1H-Imidazol-1-yl)methyl)-5-(1-methyl-3-(trifluoromethyl)-1H-pyrazol-4-yl)-1-oxo-3,4-dihydroisoquinolin-2(1H)-yl)-6-ethyl-N-((1-isonicotinoylazetidin-3-yl)methyl)quinoline-8-carboxamide]	

SMILES	Ki (WDR5) [nM]	GI50 [1, 2] [nM]	GI50 [1] [nM]
CCn1cc(-c2cc(Cn3ccnc3C)cc3c2CCN([C@H]2CCOc4ccc(OC)cc42)C3=O)c(C(F)(F)F)n1 [Example 74, (S)-5-(1-Ethyl-3-(trifluoromethyl)-1H-pyrazol-4-yl)-2-(6-methoxychroman-4-yl)-7-((2-methyl-1H-imidazol-1-yl)methyl)-3,4-dihydroisoquinolin-1(2H)-one]	< 0.02		20
